Experimental data published in patent US20160250285A1, “NEUROPROTECTIVE PEPTIDES” (priority 2013, published 2016).
Entries after “also recorded” stand apart in the source; their conditions may differ.

How the values were obtained:
[1] = tested on: primary cortical neuronal cultures
Description: Establishment of cortical cultures was as previously described (Meloni et al. 2001). Briefly, cortical tissue from E18-E19 Sprague-Dawley rats was dissociated in Dulbecco's modified Eagle medium (DMEM; Invitrogen, Australia) supplemented with 1.3 mM L-cysteine, 0.9 mM NaHCOa, 10 units/ml papain (Sigma, USA) and 50 units/ml DNase (Sigma) and washed in cold DMEM/10% horse serum. Neurons were resuspended in Neurobasal (Invitrogen) containing 2% B27 supplement (B27; Invitrogen). Before seeding, 96-well sized glass wells (6 mm diameter, ProTech, Australia) or 96-well plastic plates (ProSciTech, Australia) were coated with poly-D-lysine overnight ([…]: 50 mg/mL; 70-150 K, Sigma). Excess poly-D-lysine solution was then removed and replaced with Neurobasal (containing 2% B27; 4% fetal bovine serum; 1% horse serum; […] glutamate; […] 2-mercaptoethanol; and […]). Neurons were plated to obtain ≈10,000 viable neurons for each well on day in vitro 11-12. Neuronal cultures were maintained in a CO2 incubator (5% CO2, 95% air balance, 98% humidity) at 37° C. On day in vitro 4 one third of the culture medium was removed and replaced with fresh Neurobasal/2% B27 containing the mitotic inhibitor, cytosine arabinofuraNOside (1 mM final concentration; Sigma). On day in vitro 8 one half of the culture medium was replaced with Neurobasal/2% B27. Cultures were used on day in vitro 11 or 12 after which time they routinely consist of >97% neurons and 1-3% astrocytes (Meloni et al. 2001).
Peptides were added to culture wells (96-well plate format) 15 minutes prior to glutamic acid or kainic acid exposure by removing media and adding 50 μl of Neurobasal/2% 327 containing CPPs, control peptides or MK801/CNQX. To induce excitotoxicity, 50 μl of Neurobasal/2% B27 containing glutamic acid (200 μM) or kainic acid (400 μM) or NMDA (200 μM) was added to the culture wells (100 μM glutamic acid, 200 μM kainic acid and NMDA 100 μM final concentration). Cultures were incubated at 37° C. in the CO2 incubator for 5 minutes for glutamic acid, 45 minutes for kainic acid and 10 minutes for NMDA exposure, after which time the media was replaced with 100 μl of 50% Neurobasal/2% N2 supplement (Invitrogen) and 50% balanced salt solution (BSS; see below). Cultures were incubated for a further 24 hours at 37° C. in the CO2 incubator. The untreated controls with or without glutamic acid or kainic acid treatment received the same wash steps and media additions.
Twenty-four hours after insult, neuronal cultures were examined by light microscopy for qualitative assessment of neuronal cell viability. Neuronal viability was quantitatively measured by 3-(4,5,dimethyliazol-2-yl)-5-(3-carboxymethoxy-phenyl)-2-(4-sulfophenyl)-2H-tetrazolium salt (MTS) assay (Promega, Australia). The MTS assay measures the cellular conversion of the tetrazolium salt to a water-soluble brown formazan salt, which is detected spectrophotometrically at 490 nm. MTS absorbance data were converted to reflect proportional cell viability relative to both the untreated and treated controls, with the untreated control taken as 100% viability, and presented as mean±SEM. For studies using astrocytes, bEND3, and SH-Y5Y cells, raw MTS data was used to generate graphs. Viability data was analysed by ANOVA, followed by post-hoc Fischer's PLSD test, with P<0.05 values considered statistically significant. Four- to six wells were used in all assays.

[2] = tested on: brain endothelial cells (bEND3 cells); assay: In vitro ischemia/OGD model, bEND3 cells; assay type: cell-based; settings: peptide during/after ischemia (FIG. 3c) or 15 min before OGD (FIGS. 23, 24)
Description: A brain endothelial cell line (bEND3) and a neuroblastoma cell line (SH-SY5Y) were also used for some experiments. bEND3 and SH-SY5Y cells were cultured using standard techniques in DMEM plus 5 or 15% foetal calf serum.
The in vitro ischemia model was also used for bEND3 cells, SH-SY5Y cells, and astrocytes. For bEND3 cells anaerobic incubation was extended to 2-3 hours and upon removal from the anaerobic incubator, 60 μl of DMEM/2% FCS was added to wells. […] Upon removal from the anaerobic incubator, 60 μl of DMEM/2% FCS was added to wells.

fold more potent than TAT-D, based on IC50 values ([1]; kainic acid model): 7 fold
Structure (SMILES): N=C(N)NCCC[C@H](NC(=O)[C@H](CCCNC(=N)N)NC(=O)[C@H](CCCNC(=N)N)NC(=O)[C@H](CCCNC(=N)N)NC(=O)[C@H](CCCNC(=N)N)NC(=O)[C@H](CCCNC(=N)N)NC(=O)[C@H](CCCNC(=N)N)NC(=O)[C@H](CCCNC(=N)N)NC(=O)[C@@H](N)CCCNC(=N)N)C(=O)O [Peptide R9]
neuroprotection ([1]; FIG. 2): neuroprotective | IC50 ([1]; read-out: IC50: Kainic acid model, Table 3, from FIG. 2, 200 μM kainic acid 45 min, viability 24 h, MTS): 810 nM | protection of bEND3 cells (cell death / viability after in vitro ischemia/OGD) [2]: reduced; also recorded: able to protect
